Reference: ChEMBL document CHEMBL1201862, “PubChem BioAssay data set” (2004)
Calls of active or inactive are those of the source.

How the values were obtained:
Cytochrome P450 2D6 = Cytochrome P450 2D6 (Homo sapiens, UniProt P10635);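 note: CYP2D6 member of a cytochrome P450 panel assay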
Cytochrome P450 2C19 = Cytochrome P450 2C19 (Homo sapiens, UniProt P33261); assay: Cytochrome panel assay with activity outcomes. Panel member name: p450-cyp2c19 Compounds with AC50 equal or less than 10 uM are considered active; format: functional
Cytochrome P450 1A2 = biological target: T1, Cytochrome P450 1A2 (Homo sapiens, UniProt P05177);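 note: PubChem cytochrome P450 panel assay, CYP1A2 panel member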
T1 sequence (P05177 whole entry): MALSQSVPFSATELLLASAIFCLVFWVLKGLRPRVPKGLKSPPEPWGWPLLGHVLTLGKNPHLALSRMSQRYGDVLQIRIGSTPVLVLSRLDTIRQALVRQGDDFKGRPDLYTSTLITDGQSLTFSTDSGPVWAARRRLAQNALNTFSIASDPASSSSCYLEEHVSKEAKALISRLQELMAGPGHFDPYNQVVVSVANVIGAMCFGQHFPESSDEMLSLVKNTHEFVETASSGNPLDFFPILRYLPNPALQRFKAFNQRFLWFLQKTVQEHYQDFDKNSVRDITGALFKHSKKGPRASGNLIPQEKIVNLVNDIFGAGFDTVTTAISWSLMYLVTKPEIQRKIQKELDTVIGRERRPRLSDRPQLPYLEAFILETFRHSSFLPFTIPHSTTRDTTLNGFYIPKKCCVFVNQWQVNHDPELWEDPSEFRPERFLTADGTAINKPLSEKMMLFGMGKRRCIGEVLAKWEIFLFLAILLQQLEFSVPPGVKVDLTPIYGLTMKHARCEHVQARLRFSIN

Cytochrome P450 2C9 = Cytochrome P450 2C9 (Homo sapiens, UniProt P11712)
[1] = C. albicans growth with fluconazole, confirmation, fluorescence, retest (AID 2467); format: functional, cell-based
Cytochrome P450 3A4 = Cytochrome P450 3A4 (Homo sapiens, UniProt P08684);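 note: CYP3A4 tested as one member of a cytochrome P450 panel screen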
[2] = biological target: T2, Replicative DNA helicase DnaB (Mycobacterium tuberculosis, UniProt P9WMR3); assay: DnaB intein splicing inhibitors, dose response, biochemical, cell-free fluorescence (AID 449749); format: functional
T2 sequence (P9WMR3 whole entry): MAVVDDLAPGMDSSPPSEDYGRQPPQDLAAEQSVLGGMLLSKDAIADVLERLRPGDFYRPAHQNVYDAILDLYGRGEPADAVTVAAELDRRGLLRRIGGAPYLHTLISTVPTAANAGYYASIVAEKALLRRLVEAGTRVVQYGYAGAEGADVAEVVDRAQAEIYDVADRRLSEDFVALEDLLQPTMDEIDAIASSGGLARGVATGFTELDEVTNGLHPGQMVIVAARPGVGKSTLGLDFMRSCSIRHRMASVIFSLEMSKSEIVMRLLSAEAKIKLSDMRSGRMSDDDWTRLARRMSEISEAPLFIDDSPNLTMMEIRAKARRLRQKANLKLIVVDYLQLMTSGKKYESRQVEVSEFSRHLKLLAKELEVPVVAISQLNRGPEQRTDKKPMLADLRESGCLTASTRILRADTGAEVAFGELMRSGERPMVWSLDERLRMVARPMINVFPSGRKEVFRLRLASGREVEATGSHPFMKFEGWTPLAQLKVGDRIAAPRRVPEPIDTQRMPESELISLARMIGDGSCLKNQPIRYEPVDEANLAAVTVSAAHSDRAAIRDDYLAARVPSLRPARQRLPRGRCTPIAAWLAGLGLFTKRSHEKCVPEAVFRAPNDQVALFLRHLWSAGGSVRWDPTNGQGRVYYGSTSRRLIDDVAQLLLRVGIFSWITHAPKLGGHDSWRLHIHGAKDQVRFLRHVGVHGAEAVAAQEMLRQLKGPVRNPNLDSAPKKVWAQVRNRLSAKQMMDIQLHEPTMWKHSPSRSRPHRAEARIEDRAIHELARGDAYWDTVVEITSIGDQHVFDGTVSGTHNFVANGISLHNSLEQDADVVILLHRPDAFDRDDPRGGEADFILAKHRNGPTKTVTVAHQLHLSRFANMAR

Protein RecA = biological target: T3, Protein RecA (Mycobacterium tuberculosis, UniProt P9WHJ3); assay: Fluorescence Cell-Free Homogeneous Dose Retest to Identify Inhibitors of RecA-Intein Splicing Activity. [Related pubchem assays (depositor defined):AID2097, AID2223, AID489010, AID492950]; format: functional
T3 sequence (P9WHJ3 whole entry): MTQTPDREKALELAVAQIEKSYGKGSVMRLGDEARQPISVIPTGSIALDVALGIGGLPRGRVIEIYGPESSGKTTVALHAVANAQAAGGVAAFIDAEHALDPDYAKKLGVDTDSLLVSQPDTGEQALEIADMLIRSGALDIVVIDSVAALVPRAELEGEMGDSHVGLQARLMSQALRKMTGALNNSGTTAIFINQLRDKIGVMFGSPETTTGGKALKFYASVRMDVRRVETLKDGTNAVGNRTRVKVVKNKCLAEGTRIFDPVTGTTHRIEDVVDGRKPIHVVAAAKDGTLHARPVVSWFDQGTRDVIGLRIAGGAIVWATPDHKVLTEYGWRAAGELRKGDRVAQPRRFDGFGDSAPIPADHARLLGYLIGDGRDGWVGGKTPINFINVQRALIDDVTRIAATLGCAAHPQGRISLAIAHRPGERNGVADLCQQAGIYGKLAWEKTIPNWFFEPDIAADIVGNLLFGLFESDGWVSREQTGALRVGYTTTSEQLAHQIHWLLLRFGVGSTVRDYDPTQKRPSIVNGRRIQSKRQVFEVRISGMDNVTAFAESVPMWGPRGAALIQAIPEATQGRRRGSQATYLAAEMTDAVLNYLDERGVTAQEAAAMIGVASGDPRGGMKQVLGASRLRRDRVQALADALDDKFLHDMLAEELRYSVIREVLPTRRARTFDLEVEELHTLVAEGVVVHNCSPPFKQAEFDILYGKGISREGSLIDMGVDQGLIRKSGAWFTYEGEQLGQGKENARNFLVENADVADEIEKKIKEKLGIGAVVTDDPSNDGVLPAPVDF

[3] = biological target: T4, Heat shock factor protein 1 (Mus musculus, UniProt P38532); assay: inhibition of MG132-induced HSE-luciferase signal, confirmation, cell-based, NIH3T3, luminescence, dose retest (AID 2382); format: functional;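 note: NIH3T3 fibroblasts with HSF1-driven luciferase reporter stressed by proteasome inhibitor MG132; luminescence from HSF1-driven luciferase expression after 8 hours of MG132 stress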
T4 sequence (P38532 whole entry): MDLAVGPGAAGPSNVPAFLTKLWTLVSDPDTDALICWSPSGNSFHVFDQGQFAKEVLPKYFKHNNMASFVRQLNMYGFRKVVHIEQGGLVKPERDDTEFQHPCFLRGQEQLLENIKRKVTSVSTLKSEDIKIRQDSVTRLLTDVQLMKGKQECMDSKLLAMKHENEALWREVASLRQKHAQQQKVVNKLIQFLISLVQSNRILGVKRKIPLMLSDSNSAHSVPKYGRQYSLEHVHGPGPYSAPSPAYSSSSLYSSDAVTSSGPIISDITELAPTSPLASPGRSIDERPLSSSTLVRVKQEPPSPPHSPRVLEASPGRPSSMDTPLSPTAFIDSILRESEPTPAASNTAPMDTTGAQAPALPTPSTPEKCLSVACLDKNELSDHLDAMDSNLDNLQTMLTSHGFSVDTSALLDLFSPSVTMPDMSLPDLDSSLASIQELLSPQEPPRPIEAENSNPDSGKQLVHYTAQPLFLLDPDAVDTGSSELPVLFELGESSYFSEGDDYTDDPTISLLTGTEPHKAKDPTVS

Chain of Cytochrome P450 2C19 (P33261 whole entry): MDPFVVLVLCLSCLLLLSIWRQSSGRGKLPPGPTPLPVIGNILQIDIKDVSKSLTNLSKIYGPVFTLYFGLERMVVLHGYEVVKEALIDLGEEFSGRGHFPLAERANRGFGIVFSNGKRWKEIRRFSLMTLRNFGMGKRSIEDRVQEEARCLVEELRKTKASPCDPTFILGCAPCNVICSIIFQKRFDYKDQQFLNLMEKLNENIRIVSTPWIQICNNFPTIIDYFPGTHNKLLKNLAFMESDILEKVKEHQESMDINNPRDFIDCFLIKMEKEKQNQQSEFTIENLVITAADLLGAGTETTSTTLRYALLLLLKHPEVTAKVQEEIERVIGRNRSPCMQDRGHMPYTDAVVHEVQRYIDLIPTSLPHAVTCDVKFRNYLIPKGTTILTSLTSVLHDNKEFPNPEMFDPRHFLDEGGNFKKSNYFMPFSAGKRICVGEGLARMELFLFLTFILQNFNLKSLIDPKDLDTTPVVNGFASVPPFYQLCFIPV
Chain of Cytochrome P450 3A4 (P08684 whole entry): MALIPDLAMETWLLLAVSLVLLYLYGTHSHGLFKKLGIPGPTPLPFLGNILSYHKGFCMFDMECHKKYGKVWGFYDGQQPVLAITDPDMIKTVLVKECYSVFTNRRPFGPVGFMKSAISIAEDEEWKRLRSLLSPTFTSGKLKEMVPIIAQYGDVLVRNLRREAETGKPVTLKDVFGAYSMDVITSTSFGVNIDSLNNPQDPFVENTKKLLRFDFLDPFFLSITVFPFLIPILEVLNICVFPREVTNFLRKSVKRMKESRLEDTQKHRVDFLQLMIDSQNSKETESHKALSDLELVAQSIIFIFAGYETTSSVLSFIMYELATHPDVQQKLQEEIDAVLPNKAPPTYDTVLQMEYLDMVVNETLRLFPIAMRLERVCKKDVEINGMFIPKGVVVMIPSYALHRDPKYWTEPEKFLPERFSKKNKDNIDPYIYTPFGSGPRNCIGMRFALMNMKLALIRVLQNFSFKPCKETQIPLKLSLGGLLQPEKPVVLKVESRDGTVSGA
Chain of Cytochrome P450 2C9 (P11712 whole entry): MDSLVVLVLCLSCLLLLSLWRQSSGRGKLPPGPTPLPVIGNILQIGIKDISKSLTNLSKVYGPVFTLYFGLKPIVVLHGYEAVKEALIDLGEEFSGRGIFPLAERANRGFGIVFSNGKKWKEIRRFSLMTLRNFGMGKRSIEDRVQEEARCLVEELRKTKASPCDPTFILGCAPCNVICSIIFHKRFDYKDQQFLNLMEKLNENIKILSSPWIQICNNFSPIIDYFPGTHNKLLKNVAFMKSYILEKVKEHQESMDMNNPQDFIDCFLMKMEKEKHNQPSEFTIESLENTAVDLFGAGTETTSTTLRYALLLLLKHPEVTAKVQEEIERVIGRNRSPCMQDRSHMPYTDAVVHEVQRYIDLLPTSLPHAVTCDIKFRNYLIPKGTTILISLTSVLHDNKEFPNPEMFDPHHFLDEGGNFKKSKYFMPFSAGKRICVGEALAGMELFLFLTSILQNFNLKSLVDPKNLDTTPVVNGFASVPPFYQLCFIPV
Chain of Cytochrome P450 2D6 (P10635 whole entry): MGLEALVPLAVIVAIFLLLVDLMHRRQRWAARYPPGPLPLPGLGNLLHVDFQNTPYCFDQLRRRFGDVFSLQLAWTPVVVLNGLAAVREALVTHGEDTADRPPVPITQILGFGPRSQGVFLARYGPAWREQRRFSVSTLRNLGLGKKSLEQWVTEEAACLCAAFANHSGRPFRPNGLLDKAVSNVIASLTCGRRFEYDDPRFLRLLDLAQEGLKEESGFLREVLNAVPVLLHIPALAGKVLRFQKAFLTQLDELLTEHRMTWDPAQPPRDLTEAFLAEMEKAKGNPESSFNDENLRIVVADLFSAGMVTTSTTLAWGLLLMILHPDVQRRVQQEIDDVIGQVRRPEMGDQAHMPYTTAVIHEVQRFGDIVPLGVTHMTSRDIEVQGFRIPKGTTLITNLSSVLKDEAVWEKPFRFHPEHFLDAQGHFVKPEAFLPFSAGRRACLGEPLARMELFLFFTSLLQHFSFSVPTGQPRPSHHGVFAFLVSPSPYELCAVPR

SMILES | AC50 (Cytochrome P450 2D6) | AC50 (Cytochrome P450 2C19; read-out: AC50) | AC50 (Cytochrome P450 1A2) | AC50 (Cytochrome P450 3A4) | other results
c1nc(NC2CCNCC2)c2cc(-c3ccc4c(c3)OCO4)ccc2n1 | 20 µM (inconclusive) |  |  |  | 
C[S+]([O-])c1ccccc1-c1nc(-c2cc(C(F)(F)F)cc(C(F)(F)F)c2)no1 (centres undefined) |  | 8.91 µM (inconclusive) | 2.24 µM (inconclusive) |  | AC50 (Cytochrome P450 2C9): 17.8 µM (inconclusive)
Nc1ccc(SCCN2C(=O)c3ccccc3C2=O)cc1 |  |  |  |  | EC50 [1]: > 38 µM (not active)
CN1CCN(c2ncc3nc(-c4cn(C)c5ccccc45)c(=O)n(CCC#N)c3n2)CC1 | 39.8 µM (inconclusive) | 39.8 µM (inconclusive) |  | 25.1 µM (inconclusive) | AC50 (Cytochrome P450 2C9): 39.8 µM (inconclusive)
CN1CCCC[C@@H]1CCN1CCCCC1 |  |  | 0.01 µM (inconclusive) |  | 
CCCCCCCCC(=O)NCc1ccc(O)c(OC)c1 [NONIVAMIDE] | 25.1 µM (inconclusive) | 7.94 µM (inconclusive) |  |  | 
Cc1nc2ccccc2cc1C[N+]12CN3CN(CN(C3)C1)C2 |  |  | 0.631 µM (inconclusive) |  | 
COc1cccc(C(=O)O/N=C(\N)c2ccc([N+](=O)[O-])cc2)c1OC |  |  |  |  | AC50 [2]: > 380 µM (inactive); EC50 (Protein RecA): > 380 µM (inactive)
Cc1c(-c2c(C#N)c(N)nc3c2CCCCCC3)cnn1C |  |  | 35.5 µM (inconclusive) |  | AC50 (Cytochrome P450 2C9): 22.4 µM (inconclusive)
CC(=O)c1cccc(NC(=O)Oc2ccccc2)c1 |  |  | 28.2 µM (inconclusive) |  | AC50 (Cytochrome P450 2C19): inconclusive
CCOc1ccc(C(=O)C2=C(O)C(=O)N(CCCn3ccnc3)C2c2cccs2)cc1Cl (centres undefined) | 14.1 µM (inconclusive) |  |  |  | EC50 [3]: > 195 µM (not active)
CCOc1cc(/C=C(\C#N)C(=O)Nc2cccc(C(=O)O)c2)cc(Br)c1OC(=O)c1ccc(OC)cc1 |  |  |  |  | AC50 [2]: 4.04 µM (active); EC50 (Protein RecA): 13.2 µM (active)
O=[N+]([O-])c1ccc2c(/N=N\c3ccc4ccccc4c3O)c(O)cc(S(=O)(=O)O)c2c1 | 0.631 µM (inconclusive) | 2.51 µM (inconclusive) |  | 3.98 µM (inconclusive) | 
C/C=C(\C)C(=O)O[C@@H]1C(C)=C2[C@H]([C@@H]1OC(=O)CCCCCCC)[C@@](C)(OC(C)=O)C[C@@H](OC(=O)CCC)[C@@]1(O)[C@H]2OC(=O)[C@]1(C)O | 39.8 µM (inconclusive) |  | 39.8 µM (inconclusive) |  | 
CN(Cc1ccco1)C(=O)C1CCC(=O)N1Cc1ccc(F)cc1 (centres undefined) | 25.1 µM (inconclusive) |  |  |  | 
CCCCN(c1ccccc1)c1ncnc2c1cnn2C |  |  | 0.631 µM (inconclusive) |  | 
N#CCCSC(=S)[C@H]1CCCC1=N |  | 5.01 µM (inconclusive) |  | 2.51 µM (inconclusive) | 
Cc1[nH]c2ccccc2c1C(c1ccccn1)N1CCC(C)CC1 (centres undefined) | 25.1 µM (inconclusive) |  |  |  | 

SMILES | AC50 (Cytochrome P450 2D6) | AC50 (Cytochrome P450 2C19; read-out: AC50) | AC50 (Cytochrome P450 1A2) | AC50 (Cytochrome P450 3A4) | other results
Cn1ncc([N+](=O)[O-])c1C(=O)Nc1ccc2c(c1)OCCO2 | 12.6 µM (inconclusive) | 0.0355 µM (inconclusive) |  |  | AC50 (Cytochrome P450 2C9): 11.2 µM (inconclusive)
CCOC(=O)C1CCCN(C(=O)CCn2nc(-c3ccccc3)ccc2=O)C1 (centres undefined) |  |  |  | 17.8 µM (inconclusive) | AC50 (Cytochrome P450 2C9): 31.6 µM (inconclusive)
CCOc1cc(/C=C2\C(=N)N3N=C(S(=O)(=O)CC)SC3=NC2=O)ccc1OC(=O)c1ccco1 |  |  |  |  | AC50 [2]: > 380 µM (inactive); EC50 (Protein RecA): 22.1 µM (active)
Cn1cc(C(=O)N/N=C/C(Br)=C\c2ccccc2)ccc1=O |  | 28.2 µM (inconclusive) | 3.55 µM (inconclusive) |  | 
FC(F)(F)c1ccccc1-c1nc(NC2CC2)c2ccccc2n1 | 31.6 µM (inconclusive) | 10 µM (inconclusive) |  |  | 
C/C(=C\C(=O)c1ccc(Cl)cc1)NCc1ccc2c(c1)OCO2 | 5.01 µM (inconclusive) |  |  | 0.794 µM (inconclusive) | 
CNC(=O)/C=C1\NC(C)(C)Cc2c1ccc1ccccc21 |  |  |  | 15.8 µM (inconclusive) | AC50 (Cytochrome P450 2C9): 5.01 µM (inconclusive)
O=C1c2ccccc2CC[C@H]1CNCCc1ccc(O)cc1 |  | 31.6 µM (inconclusive) |  | 7.94 µM (inconclusive) | AC50 (Cytochrome P450 2C9): 39.8 µM (inconclusive)
Cc1cc(C)c(S(C)(=O)=O)c(Oc2cccc(C(F)(F)F)c2)n1 |  |  |  |  | AC50 [2]: 213 µM (active); EC50 (Protein RecA): > 380 µM (inactive)
COc1ccccc1CNc1ncnc2ccc(-c3ccc(C(=O)N(C)C)cc3)cc12 | 39.8 µM (inconclusive) | 20 µM (inconclusive) |  |  | 
CS(=O)(=O)N1CCC2(CCCN(c3ccccn3)C2)CC1 | 25.1 µM (inconclusive) | 15.8 µM (inconclusive) | 25.1 µM (inconclusive) | 15.8 µM (inconclusive) | 
CN(C)Cc1ccccc1-c1cncnc1NCc1cccnc1 |  |  | 12.6 µM (inconclusive) |  | 
CC1=C[N+](=O)c2ccccc2[N+]1=O |  |  | 6.31 µM (inconclusive) |  | 
C/C(CC(=O)Nc1cc(C)ccn1)=N\NC(=O)C(=O)NC(C)C |  |  |  |  | AC50 [2]: 19.6 µM (active); EC50 (Protein RecA): 4.48 µM (active)
COc1ccc(-c2cc(C(F)(F)F)n3nc(C(=O)NCc4ccco4)c(Cl)c3n2)cc1 |  | 1.78 µM (inconclusive) |  | 3.16 µM (inconclusive) | 
O=C(c1ccccc1)[C@H]1[C@H](c2ccccc2[N+](=O)[O-])N1C1CCCCC1 (some centres undefined) |  |  | 0.631 µM (inconclusive) | 3.98 µM (inconclusive) | 
Cc1ccc(S(=O)(=O)O[C@H]2CN3CCC2CC3)cc1 | 3.98 µM (inconclusive) |  |  |  | 
O=C(c1c(O)nc2cc(Cl)ccc2c1O)C1CC1 |  |  |  | 0.00316 µM (inconclusive) | 
